Assay [1] relates to PDAC KP^flC (LOX H1 clone) cells. Kind of assay: PDAC allograft, primary tumour, p53 wt, LOX o/e. Format: in vivo, mouse. The conditions noted are these: ratio of average tumour volume treated/vehicle; 200 mg/kg po qd; p<0.05.
Assay [2] addresses T1, LOX (Mus musculus, UniProt P28301).
T1 construct: Full length LOX cDNA was then PCR cloned into pEGFP-N1 (Clonetech), or biosensor vector proGFP2-N1; expressed in transfected cells; host or cells: MDCK cells grown as cysts on Matrigel
T1 sequence (P28301 163-411): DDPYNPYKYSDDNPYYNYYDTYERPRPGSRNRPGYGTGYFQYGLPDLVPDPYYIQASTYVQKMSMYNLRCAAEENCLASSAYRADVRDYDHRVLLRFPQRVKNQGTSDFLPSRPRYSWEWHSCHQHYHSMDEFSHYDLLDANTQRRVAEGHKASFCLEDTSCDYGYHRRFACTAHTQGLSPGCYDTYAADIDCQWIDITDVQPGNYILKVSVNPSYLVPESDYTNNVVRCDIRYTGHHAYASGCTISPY
Kind of assay: LOX activity in cysts assay (roGFP2 LOX biosensor in MDCK cysts). Type of assay: cell-based. Particulars: MDCK cysts; read-out: LOX biosensor IC50 (cyst). As to the method:
LOX Activity in Cysts Assay (Tang et al, 2017).
Cell Culture and Transfection
Cell lines were purchased from American Type Culture Collection (ATCC). […] MDCK cell lines were cultured in Dulbecco's Modified Eagle Medium (DMEM):F12 media supplemented with 10% foetal bovine serum (FBS) and 1% Penicillin Streptomycin solution (Pen Strep). Cells were incubated at 37° C. in a humidified incubator with 5% CO2. Lipofectamine 3000 or lentivirus was used to transfect MDCK cells with GFP constructs and cells were selected with G418 (Life Technologies) at 5 mg/ml. Cell culture reagents were purchased from Life Technologies.
To produce MDCK cysts, cells were cultured on Matrigel (Corning) with 2% Matrigel supplemented in DMEM with 10% FBS. Cysts were allowed to form for 10 days before subsequent studies.
Cloning of LOX Expression Constructs
Mouse LOX cDNA was purchased from OriGene. Full length LOX cDNA was then PCR cloned into pEGFP-N1 (Clonetech), or biosensor vector proGFP2-N1 (Hanson, 2004) using the following primers, […] (forward primer) and […] (reverse primer). For the insertion into pEGFP-N1 or proGFP2-N1, NheI and XhoI restriction sites were added to forward and reverse primers accordingly. Mutant LOX constructs were made using QuickChange II site-directed mutagenesis kit (Agilent Technologies) following manufacture's protocol using LOX-GFP as template. To generate, roGFP2 versions of LOX mutant constructs, LOX mutant cDNA was transferred from pEGFP-N1 to proGFP2-N1 using NheI and XhoI.
Confocal Imaging and Imaging Analysis
Photomicrographs of live MDCK cysts with a Leica TCS SP8 X confocal system were used to image the biosensor. The oxidised biosensor was excited using a 405 nm laser, while the reduced biosensor was excited with a 488 nm laser. Emission of the biosensor was recorded at 500 nm˜530 nm range using sequential scans. Ratio images were generated following a published protocol {Kardash, 2011 #376}. Note, while the published protocol generates YFP/CFP ratio images, we used it to generate Oxidised/Reduced (roGFP2 ratio) ratio images. The roGFP2 ratio at the basal surface of MDCK cysts was used to indicate LOX inhibition. LOX inhibitors were added 30 min prior to imaging.
The inhibition of LOX in cysts treated with LOX inhibitors compared to control (DMSO vehicle treated) cysts is shown in Table 2. For clarity, readout for DMSO treated cysts represents 0% inhibition (no inhibition) and readout for BAPN at 1 mM is used as 100% inhibition (full inhibition).

Molecules are shown by their SMILES. Some results are limits rather than exact numbers.

Regarding `CCOc1ccc(N2C[C@H]3CN(C(=O)NCCO)C[C@H]3C2)cc1` [Example 1, cis-5-(4-Ethoxyphenyl)-N-(2-hydroxyethyl)hexahydropyrrolo[3,4-c]pyrrole-2(1H)-carboxamide], the “T/C, PDAC (mouse pancreatic carcinoma) primary tumour b) p53wt, LOX o/e” value in assay [1] is listed as “b) 0.35”. The IC50 (usually the concentration that inhibits the measured activity by half) in assay [2] is < 560 nM.

The values are drawn from patent US12018029B2, “Hexahydropyrrolo[3,4-c]pyrrole derivatives useful as LOX inhibitors” (THE INSTITUTE OF CANCER RESEARCH: ROYAL CANCER HOSPITAL, priority 2018, dated 2024).
